Values joined by “and” are separate entries in the source; they are usually repeats but may differ in a detail not shown here. Identical values can stand only once. Like-named read-outs stand apart in the source and are kept apart here.
Legend:
[1] = target: T1, Cyclin Dependent Kinase 2/Cyclin E1 (CDK2-cycE1) (Homo sapiens, UniProt P24941); test: CDK2-cycE1 TR-FRET (LANCE) enzyme assay; type: biochemical; settings: for FS CDK1/CDK2 / FS CDK4/CDK2: fold selectivity; for FS CDK1/CDK2: enzymatic CDK1 Ki over CDK2 Ki; for FS CDK4/CDK2: enzymatic CDK4 Ki over CDK2 Ki; for CDK2 Ki fold change in potency versus Comparator D / CDK2 Ki fold change in potency versus Comparator E: in brackets after CDK2 Ki
T1 construct: purchased ProQinase 0050-0055-1
How it was run: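 Compound dose responses pre-incubated 30 min with CDK2-cycE1 in 50 mM HEPES pH 7.5, 10 mM MgCl2, 2 mM TCEP, 0.05% BGG, 0.01% Brij 35. Reaction quenched with EDTA (15 mM final), phospho-MBP detected by Eu-anti-phospho-MBP TR-FRET (acceptor/donor ratio). Inhibition constants from Morrison equation.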

HCT116 cells = test: p-H3 HCT-116 mitotic release cell proliferation assay (cellular CDK1); type: cell-based; settings: for IC50: Homo sapiens, HCT-116, Table O, cellular assay, read-out: CDK1 p-H3 IC50
How it was run: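 HCT116 cells arrested 16 h with 500 nM nocodazole, then exposed to compound for 4 h at 37 °C (0.1% DMSO). Lysates read by HTRF/FRET with donor and acceptor phospho-Histone H3 (Ser10) antibodies, ≥2 h at room temperature; CDK1 inhibition seen as loss of p-H3 on mitotic release.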

SKOV-3 (ATCC HTB-77) = test: SKOV-3 EdU incorporation cell proliferation assay (CDK4/6-dependent); type: cell-based; settings: for IC50: Homo sapiens, cellular assay, read-out: CDK4/6 SKOV-3 IC50; for FS SKOV-3/OVISE: fold selectivity
How it was run: (§1)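 Cells in RPMI/10% FBS dosed with compound (0.5% DMSO final) for 16 h at 37 °C, 5% CO2, then EdU 0.5 μM final for 8 h before fixation and imaging. IC50 from 4-parameter logistic fit of EdU-positive cell fraction versus dose.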

[2] = target: T2, Cyclin Dependent Kinase 4/Cyclin D3 (CDK4-cycD3) (Homo sapiens, UniProt P11802); test: CDK4-cycD3 TR-FRET (LANCE) enzyme assay; type: biochemical; settings: for Ki: Table O, enzymatic assay; for FS CDK4/CDK2: fold selectivity, enzymatic Ki ratio
T2 construct: purchased Carna Biosciences 04-105
T2 sequence (P11802 whole entry): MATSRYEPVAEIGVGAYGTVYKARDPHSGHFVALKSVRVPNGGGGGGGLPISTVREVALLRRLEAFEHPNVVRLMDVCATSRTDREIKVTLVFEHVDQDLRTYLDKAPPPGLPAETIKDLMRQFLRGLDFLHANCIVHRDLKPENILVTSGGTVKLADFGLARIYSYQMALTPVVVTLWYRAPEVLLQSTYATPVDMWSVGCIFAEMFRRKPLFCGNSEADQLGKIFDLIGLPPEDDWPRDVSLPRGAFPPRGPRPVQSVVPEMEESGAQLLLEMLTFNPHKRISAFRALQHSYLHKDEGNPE
T2 sequence (P30281 whole entry partner): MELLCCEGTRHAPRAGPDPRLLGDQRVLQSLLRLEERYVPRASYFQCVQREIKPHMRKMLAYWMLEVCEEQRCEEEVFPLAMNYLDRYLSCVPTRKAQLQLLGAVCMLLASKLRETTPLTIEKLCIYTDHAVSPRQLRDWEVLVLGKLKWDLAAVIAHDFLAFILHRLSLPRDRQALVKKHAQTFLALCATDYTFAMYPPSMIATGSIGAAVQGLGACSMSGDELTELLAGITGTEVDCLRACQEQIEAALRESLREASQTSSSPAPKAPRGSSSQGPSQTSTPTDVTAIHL
How it was run: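 Compound dose responses pre-incubated 30 min with enzyme mix in 50 mM HEPES pH 7.5, 10 mM MgCl2, 2 mM TCEP, 0.05% BGG, 0.01% Brij 35. Reaction quenched with EDTA (15 mM final); Eu-anti-phospho-4E-BP1 TR-FRET detection, acceptor/donor ratio. Ki derived by Morrison equation.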

[3] = tested on: OVISE (JCRB1043, CCNE1-amplified); test: OVISE EdU incorporation cell proliferation assay (CDK2-dependent); type: cell-based; settings: for IC50 / FS SKOV-3/OVISE / FS p-H3/OVISE: Table O; for IC50: cellular assay, read-out: CDK2 OVISE IC50; for FS SKOV-3/OVISE / FS p-H3/OVISE: fold selectivity; for FS SKOV-3/OVISE: cellular SKOV-3 IC50 over OVISE IC50; for FS p-H3/OVISE: cellular p-H3 IC50 over OVISE IC50; for CDK2 OVISE IC50 fold change in potency versus Comparator D: Table R; for CDK2 OVISE IC50 fold change in potency versus Comparator D / CDK2 OVISE IC50 fold change in potency versus Comparator E: in brackets after OVISE IC50; for CDK2 OVISE IC50 fold change in potency versus Comparator E: Table S
How it was run: as §1

[4] = target: T3, Cyclin Dependent Kinase 1/Cyclin A2 (CDK1-cycA2) (Homo sapiens, UniProt P06493); test: CDK1-cycA2 TR-FRET (Lance) enzyme assay; type: biochemical; settings: for Ki: Table O, enzymatic assay; for FS CDK1/CDK2: fold selectivity, enzymatic Ki ratio
T3 construct: purchased ProQinase 0134-0054-1
T3 sequence (P06493 whole entry): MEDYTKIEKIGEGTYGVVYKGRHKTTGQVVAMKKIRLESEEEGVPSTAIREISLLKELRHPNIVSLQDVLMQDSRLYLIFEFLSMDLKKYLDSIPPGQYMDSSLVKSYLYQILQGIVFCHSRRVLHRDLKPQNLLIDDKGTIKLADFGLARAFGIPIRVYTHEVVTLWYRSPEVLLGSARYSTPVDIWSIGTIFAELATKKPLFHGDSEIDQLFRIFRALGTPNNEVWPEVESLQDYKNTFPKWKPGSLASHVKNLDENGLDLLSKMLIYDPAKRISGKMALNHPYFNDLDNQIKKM
T3 sequence (P20248 whole entry partner): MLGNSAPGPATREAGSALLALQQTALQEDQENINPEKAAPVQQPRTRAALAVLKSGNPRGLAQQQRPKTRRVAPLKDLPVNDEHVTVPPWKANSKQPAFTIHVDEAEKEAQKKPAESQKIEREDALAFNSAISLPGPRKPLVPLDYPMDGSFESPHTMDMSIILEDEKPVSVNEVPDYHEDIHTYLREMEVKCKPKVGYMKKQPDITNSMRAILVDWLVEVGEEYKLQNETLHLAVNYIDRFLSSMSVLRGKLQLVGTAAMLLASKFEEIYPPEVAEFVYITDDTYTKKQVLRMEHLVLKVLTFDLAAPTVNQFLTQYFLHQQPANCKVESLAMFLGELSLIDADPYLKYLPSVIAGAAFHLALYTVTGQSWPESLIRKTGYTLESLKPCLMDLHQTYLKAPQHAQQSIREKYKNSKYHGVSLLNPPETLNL
How it was run: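 Human CDK1/cyclin A2 pre-incubated 30 min with compound dose responses in 50 mM HEPES pH 7.5, 10 mM MgCl2, 2 mM TCEP, 0.05% BGG, 0.01% Brij 35. Reaction quenched with EDTA (15 mM final); TR-FRET readout using Eu-anti-phospho-4E-BP1, acceptor/donor ratio. Inhibition constants from Morrison equation.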

[5] = Table O, enzymatic assay, read-out: CDK2 Ki
[6] = Table R, enzymatic assay, read-out: CDK2 Ki
[7] = Table S, enzymatic assay, read-out: CDK2 Ki
[8] = SKOV-3/OVISE fold-selectivity cellular assay data

## CC(C)(C)NC(=O)O[C@@H]1CC[C@H](c2cc(Nc3cccnn3)n[nH]2)C1 [Example 4I, (1R,3S)-3-(3-(pyridazin-3-ylamino)-1H-pyrazol-5-yl)cyclopentyl tert-butylcarbamate]
[1]; [5]
  Ki: 2.5 nM
[1]; Table O
  FS CDK1/CDK2: 18
  FS CDK4/CDK2: 13
[1]; [6]
  Ki: 2.5 nM
[1]; Table R
  CDK2 Ki fold change in potency versus Comparator D: 1.1 fold
[1]; [7]
  Ki: 2.5 nM
[1]; Table S
  CDK2 Ki fold change in potency versus Comparator E: 0.2 fold
HCT116 cells
  IC50: 150 nM
SKOV-3 (ATCC HTB-77); SK-OV-3, Table O
  IC50: 4900 nM
SKOV-3 (ATCC HTB-77); [8]
  selectivity for CDK2 over CDK4 compared with Comparator E: increase in selectivity for CDK2 over CDK4
SKOV-3 (ATCC HTB-77); Table R
  FS SKOV-3/OVISE increased over Comparator D, (+) sign: (+)
SKOV-3 (ATCC HTB-77); Table R, cellular IC50 ratio
  FS SKOV-3/OVISE: 20
SKOV-3 (ATCC HTB-77); Table S
  FS SKOV-3/OVISE increased over Comparator E, (+) sign: (+)
SKOV-3 (ATCC HTB-77); Table S, cellular IC50 ratio
  FS SKOV-3/OVISE: 20
[2]
  Ki: 33 nM
[2]; Table R
  FS CDK4/CDK2 increased over Comparator D, (+) sign: (+)
  FS CDK4/CDK2: 13
[2]; Table S
  FS CDK4/CDK2: 13
[3]
  IC50: 240 nM
  FS SKOV-3/OVISE: 20
  FS p-H3/OVISE: 0.63
  CDK2 OVISE IC50 fold change in potency versus Comparator D: 16 fold
  CDK2 OVISE IC50 fold change in potency versus Comparator E: 0.7 fold
[4]
  Ki: 45 nM
[4]; Table R
  FS CDK1/CDK2: 18
[4]; Table S
  FS CDK1/CDK2: 18

## CC(C)(C)NC(=O)O[C@@H]1CC[C@H](c2cc(Nc3ncccn3)n[nH]2)C1 [Example 4J, (1R,3S)-3-(3-(pyrimidin-2-ylamino)-1H-pyrazol-5-yl)cyclopentyl tert-butylcarbamate]
[1]; [5]
  Ki: 2.5 nM
[1]; Table O
  FS CDK1/CDK2: 68
  FS CDK4/CDK2: 4.4
[1]; [6]
  Ki: 2.5 nM
[1]; Table R
  CDK2 Ki fold change in potency versus Comparator D: 1.1 fold
[1]; [7]
  Ki: 2.5 nM
[1]; Table S
  CDK2 Ki fold change in potency versus Comparator E: 0.2 fold
HCT116 cells
  IC50: 360 nM
SKOV-3 (ATCC HTB-77); SK-OV-3, Table O
  IC50: 1200 nM
SKOV-3 (ATCC HTB-77); SK-OV-3, Table R
  IC50: 1200 nM
SKOV-3 (ATCC HTB-77); SK-OV-3, Table S
  IC50: 1200 nM
SKOV-3 (ATCC HTB-77); Table R
  FS SKOV-3/OVISE increased over Comparator D, (+) sign: (+)
SKOV-3 (ATCC HTB-77); Table R, cellular IC50 ratio
  FS SKOV-3/OVISE: 3.8
SKOV-3 (ATCC HTB-77); Table S, cellular IC50 ratio
  FS SKOV-3/OVISE: 3.8
[2]
  Ki: 11 nM
[2]; Table R
  FS CDK4/CDK2 increased over Comparator D, (+) sign: (+)
  FS CDK4/CDK2: 4.4
[2]; Table S
  FS CDK4/CDK2: 4.4
[3]
  IC50: 320 nM
  FS SKOV-3/OVISE: 3.8
  FS p-H3/OVISE: 1.1
  CDK2 OVISE IC50 fold change in potency versus Comparator D: 12 fold
  CDK2 OVISE IC50 fold change in potency versus Comparator E: 0.5 fold
[4]
  Ki: 170 nM
[4]; Table R
  FS CDK1/CDK2 increased over Comparator D, (+) sign: (+)
  FS CDK1/CDK2: 68
[4]; Table S
  FS CDK1/CDK2 increased over Comparator E, (+) sign: (+)
  FS CDK1/CDK2: 68

## CC(C)(C)NC(=O)O[C@@H]1CC[C@H](c2cc(Nc3ccnnc3)n[nH]2)C1 [Example 4K, (1R,3S)-3-(3-(pyridazin-4-ylamino)-1H-pyrazol-5-yl)cyclopentyl tert-butylcarbamate]
[1]; [5]
  Ki: 0.45 nM
[1]; Table O
  FS CDK1/CDK2: 54
  FS CDK4/CDK2: 104
[1]; [6]
  Ki: 0.45 nM
[1]; Table R
  CDK2 Ki fold change in potency versus Comparator D: 6 fold
[1]; [7]
  Ki: 0.45 nM
[1]; Table S
  CDK2 Ki fold change in potency versus Comparator E: 1.2 fold
[1]; enzymatic assay, Table P, read-out: CDK2 Ki
  Ki: 0.45 nM
[1]; first bracket in CDK2 Ki cell, Table P
  CDK2 Ki fold potency relative to Comparator A: 0.4 fold
[1]; read-out: CDK2 activity / potency (enzymatic assay)
  Ki: ≤ 1 nM and 0.45 nM
[1]; second bracket in CDK2 Ki cell, Table P
  CDK2 Ki fold potency relative to Comparator B: 2 fold
HCT116 cells
  pH3/OVISE fold selectivity (CDK1 over CDK2, cellular assay data): 2.1 fold
  IC50: 160 nM
HCT116 cells; first sign in cell, Table P
  FS p-H3/OVISE compared with Comparator A: (+)
HCT116 cells; fold selectivity, cellular IC50 ratio (CDK1 over CDK2), Table P
  FS p-H3/OVISE: 2.1
HCT116 cells; second sign in cell, Table P
  FS p-H3/OVISE compared with Comparator B: (+)
SKOV-3 (ATCC HTB-77); SK-OV-3, Table O
  IC50: 5500 nM
SKOV-3 (ATCC HTB-77); [8]
  CDK2 selectivity over CDK4/6 compared with Comparators A and B: at least three times more CDK2 selective over CDK4/6
  selectivity for CDK2 over CDK4 compared with Comparator E: increase in selectivity for CDK2 over CDK4
SKOV-3 (ATCC HTB-77); Table R
  FS SKOV-3/OVISE increased over Comparator D, (+) sign: (+)
SKOV-3 (ATCC HTB-77); Table R, cellular IC50 ratio
  FS SKOV-3/OVISE: 71
SKOV-3 (ATCC HTB-77); Table S
  FS SKOV-3/OVISE increased over Comparator E, (+) sign: (+)
SKOV-3 (ATCC HTB-77); Table S, cellular IC50 ratio
  FS SKOV-3/OVISE: 71
SKOV-3 (ATCC HTB-77); first sign in cell, Table P
  FS SKOV-3/OVISE compared with Comparator A: (+)
SKOV-3 (ATCC HTB-77); cellular IC50 ratio (CDK4/6 over CDK2), Table P
  FS SKOV-3/OVISE: 71
SKOV-3 (ATCC HTB-77); second sign in cell, Table P
  FS SKOV-3/OVISE compared with Comparator B: (+)
[2]
  Ki: 52 nM
[2]; Table R
  FS CDK4/CDK2 increased over Comparator D, (+) sign: (+)
[2]; Table S
  FS CDK4/CDK2 increased over Comparator E, (+) sign: (+)
[3]; CDK2 OVISE cellular assay data
  CDK2 cell potency compared with Comparator E: more potent CDK2 cell inhibitors compared to Comparator E
[3]
  IC50: 78 nM
  FS SKOV-3/OVISE: 71
  FS p-H3/OVISE: 2.1
  CDK2 OVISE IC50 fold change in potency versus Comparator D: 49 fold
  CDK2 OVISE IC50 fold change in potency versus Comparator E: 2.2 fold
[3]; first bracket in OVISE IC50 cell, Table P
  CDK2 OVISE IC50 fold potency relative to Comparator A: 0.5 fold
[3]; second bracket in OVISE IC50 cell, Table P
  CDK2 OVISE IC50 fold potency relative to Comparator B: 1.8 fold
[4]
  Ki: 27 nM
[4]; Table R
  FS CDK1/CDK2 increased over Comparator D, (+) sign: (+)
  FS CDK1/CDK2: 54
[4]; Table S
  FS CDK1/CDK2: 54
[4]; Table P
  FS CDK1/CDK2: 54

Reference: patent US20240425478A1, “CYCLOPENTYLPYRAZOLE CDK2 INHIBITORS” (Genentech, Inc., priority 2021, published 2024)
